Data from patent publication US20250129430A1, “HIGH ATP-AFFINITY PROTEIN AS THERAPEUTIC TARGET FOR INTRACTABLE CANCER MOLECULAR SUBTYPES AND INHIBITOR THEREOF” (VeraVerse Co., Ltd., priority 2021, published 2025).

Experiments:
Experiment in all cases: Cell viability drug screen, 12-point dose-response AUC
Format in all cases: cell-based, human
[1] = tested on: FU97; set-up: Average Area Under the Viability Curve (AUC), AUC norm value: scale not given here; conditions: FU97 cells, 72 hours
Method in brief: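 Trapezoidal AUC of a 12-point, DMSO-normalized dose-response curve. Luminescent viability was measured after 72 h of exposure at 37° C to half-log serial dilutions (0.5% DMSO control), dosed 24 h after plating FU97 cells at 5×10^3 per well.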

[2] = tested on: NCI_N87; conditions: NCI_N87 cells, 72 hours
Method in brief: (§1)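 Luminescent viability readings, taken 15 min after reagent addition at room temperature, were normalized to the 0.5% DMSO control to build 12-point dose-response curves. Trapezoidal integration gave the AUC. Cells had been plated at 5×10^3 per well and then exposed to half-log dilutions for 72 h.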

[3] = tested on: YCC11; conditions: 72 hours; for Average Area Under the Viability Curve (AUC), AUC norm value: YCC11 cells (SEM subtype)
Method in brief: as §1

[4] = tested on: SNU216; conditions: 72 hours; for Average Area Under the Viability Curve (AUC), AUC norm value: SNU216 cells (non-SEM subtype)
Method in brief: as §1

[5] = tested on: MKN28; conditions: MKN28 cells, 72 hours
Method in brief: as §1

[6] = tested on: NCC19; conditions: NCC19 cells, 72 hours
Method in brief: as §1

[7] = tested on: SNU1; conditions: SNU1 cells, 72 hours
Method in brief: as §1

[8] = tested on: MKN45; conditions: 72 hours; for Average Area Under the Viability Curve (AUC), AUC norm value: MKN45 cells (non-SEM subtype)
Method in brief: as §1

[9] = tested on: YCC2; conditions: YCC2 cells, 72 hours
Method in brief: as §1

[10] = tested on: SNU620; conditions: SNU620 cells, 72 hours
Method in brief: as §1

[11] = tested on: SNU484; conditions: 72 hours; for Average Area Under the Viability Curve (AUC), AUC norm value: SNU484 cells (SEM subtype)
Method in brief: as §1

[12] = tested on: MKN1; conditions: MKN1 cells, 72 hours
Method in brief: as §1

[13] = tested on: SNU668; conditions: 72 hours; for Average Area Under the Viability Curve (AUC), AUC norm value: SNU668 cells (SEM subtype)
Method in brief: as §1

[14] = tested on: NCC20; conditions: NCC20 cells, 72 hours
Method in brief: as §1

[15] = tested on: SNU601; conditions: SNU601 cells, 72 hours
Method in brief: as §1

[16] = tested on: SK4; conditions: 72 hours; for Average Area Under the Viability Curve (AUC), AUC norm value: SK4 cells (SEM subtype)
Method in brief: as §1

[17] = tested on: YCC3; conditions: YCC3 cells, 72 hours
Method in brief: as §1

[18] = tested on: Hs746T; conditions: 72 hours; for Average Area Under the Viability Curve (AUC), AUC norm value: Hs746T cells (SEM subtype)
Method in brief: as §1

[19] = tested on: NCC59; conditions: NCC59 cells, 72 hours
Method in brief: as §1

[20] = tested on: SNU719; conditions: SNU719 cells, 72 hours
Method in brief: as §1

[21] = tested on: NCC24; conditions: NCC24 cells, 72 hours
Method in brief: as §1

[22] = tested on: SNU638; conditions: SNU638 cells, 72 hours
Method in brief: as §1

[23] = tested on: OCUM1; conditions: OCUM1 cells, 72 hours
Method in brief: as §1

[24] = tested on: MKN74; conditions: MKN74 cells, 72 hours
Method in brief: as §1

[25] = tested on: SNU1967; conditions: SNU1967 cells, 72 hours
Method in brief: as §1

[26] = tested on: SNU1750; conditions: 72 hours; for Average Area Under the Viability Curve (AUC), AUC norm value: SNU1750 cells (SEM subtype)
Method in brief: as §1

[27] = tested on: SNU16; conditions: SNU16 cells, 72 hours
Method in brief: as §1

[28] = tested on: KATO3; conditions: KATO3 cells, 72 hours
Method in brief: as §1

[29] = tested on: AGS; conditions: 72 hours; for Average Area Under the Viability Curve (AUC), AUC norm value: AGS cells (non-SEM subtype)
Method in brief: as §1

Structure (SMILES): CC[C@@H]1C(=O)N(C)c2cnc(Nc3ccc(C(=O)NC4CCN(C)CC4)cc3OC)nc2N1C1CCCC1 [BI 2536]
- Average Area Under the Viability Curve (AUC), AUC norm value [1]: −0.4841
- Average Area Under the Viability Curve (AUC), AUC norm value [2]: −1.006
- Average Area Under the Viability Curve (AUC), AUC norm value [3]: −0.3817
- Average Area Under the Viability Curve (AUC), AUC norm value [4]: 2.038
- Average Area Under the Viability Curve (AUC), AUC norm value [5]: −1.69
- Average Area Under the Viability Curve (AUC), AUC norm value [6]: 3.475
- Average Area Under the Viability Curve (AUC), AUC norm value [7]: −1.064
- Average Area Under the Viability Curve (AUC), AUC norm value [8]: 0.09661
- Average Area Under the Viability Curve (AUC), AUC norm value [9]: −0.1875
- Average Area Under the Viability Curve (AUC), AUC norm value [10]: −1.078
- Average Area Under the Viability Curve (AUC), AUC norm value [11]: 0
- Average Area Under the Viability Curve (AUC), AUC norm value [12]: −0.2123
- Average Area Under the Viability Curve (AUC), AUC norm value [13]: −0.4211
- Average Area Under the Viability Curve (AUC), AUC norm value [14]: 0.5722
- Average Area Under the Viability Curve (AUC), AUC norm value [15]: 0.0215
- Average Area Under the Viability Curve (AUC), AUC norm value [16]: −1.128
- Average Area Under the Viability Curve (AUC), AUC norm value [17]: 3.315
- Average Area Under the Viability Curve (AUC), AUC norm value [18]: 1.951
- Average Area Under the Viability Curve (AUC), AUC norm value [19]: 3.556
- Average Area Under the Viability Curve (AUC), AUC norm value [20]: 3.291
- Average Area Under the Viability Curve (AUC), AUC norm value [21]: −0.8832
- Average Area Under the Viability Curve (AUC), AUC norm value [22]: 0.1863
- Average Area Under the Viability Curve (AUC), AUC norm value [23]: 2.226
- Average Area Under the Viability Curve (AUC), AUC norm value [24]: −0.6584
- Average Area Under the Viability Curve (AUC), AUC norm value [25]: 0.0237
- Average Area Under the Viability Curve (AUC), AUC norm value [26]: −0.8076
- Average Area Under the Viability Curve (AUC), AUC norm value [27]: 0.02031
- Average Area Under the Viability Curve (AUC), AUC norm value [28]: 4.704
- Average Area Under the Viability Curve (AUC), AUC norm value [29]: −1.22

Structure (SMILES): O=C(/C=C/c1cccc(S(=O)(=O)Nc2ccccc2)c1)NO [Belinostat (PXD101), Belinostat]
- Average Area Under the Viability Curve (AUC), AUC norm value [1]: −0.9726
- Average Area Under the Viability Curve (AUC), AUC norm value [2]: 0.02343
- Average Area Under the Viability Curve (AUC), AUC norm value [3]: −0.5556
- Average Area Under the Viability Curve (AUC), AUC norm value [4]: −0.2541
- Average Area Under the Viability Curve (AUC), AUC norm value [5]: −0.3952
- Average Area Under the Viability Curve (AUC), AUC norm value [6]: 1.206
- Average Area Under the Viability Curve (AUC), AUC norm value [7]: 0.1147
- Average Area Under the Viability Curve (AUC), AUC norm value [8]: 2.493
- Average Area Under the Viability Curve (AUC), AUC norm value [9]: 0.1706
- Average Area Under the Viability Curve (AUC), AUC norm value [10]: −1.0681
- Average Area Under the Viability Curve (AUC), AUC norm value [11]: 0.9966
- Average Area Under the Viability Curve (AUC), AUC norm value [12]: 0.9981
- Average Area Under the Viability Curve (AUC), AUC norm value [13]: 0.6908
- Average Area Under the Viability Curve (AUC), AUC norm value [14]: 0
- Average Area Under the Viability Curve (AUC), AUC norm value [15]: 1.495
- Average Area Under the Viability Curve (AUC), AUC norm value [16]: −0.3048
- Average Area Under the Viability Curve (AUC), AUC norm value [17]: 1.065
- Average Area Under the Viability Curve (AUC), AUC norm value [18]: 0.5598
- Average Area Under the Viability Curve (AUC), AUC norm value [19]: 2.683
- Average Area Under the Viability Curve (AUC), AUC norm value [20]: 2.329
- Average Area Under the Viability Curve (AUC), AUC norm value [21]: −1.095
- Average Area Under the Viability Curve (AUC), AUC norm value [22]: −0.5011
- Average Area Under the Viability Curve (AUC), AUC norm value [23]: −0.225
- Average Area Under the Viability Curve (AUC), AUC norm value [24]: −0.1835
- Average Area Under the Viability Curve (AUC), AUC norm value [25]: −0.3122
- Average Area Under the Viability Curve (AUC), AUC norm value [26]: −0.902
- Average Area Under the Viability Curve (AUC), AUC norm value [27]: −1.577
- Average Area Under the Viability Curve (AUC), AUC norm value [28]: 0.7544
- Average Area Under the Viability Curve (AUC), AUC norm value [29]: −0.9372

Structure (SMILES): CC(C)C[C@H](NC(=O)[C@H](Cc1ccccc1)NC(=O)c1cnccn1)B(O)O [Bortezomib (Velcade), Bortezomib]
- area under the viability curve (AUC), normalized ([1]; 12-point dose-response): 0.01494
- area under the viability curve (AUC), normalized ([2]; 12-point dose-response): 1.569
- area under the viability curve (AUC), normalized ([3]; YCC11 cells, 12-point dose-response): −0.6649
- area under the viability curve (AUC), normalized ([4]; SNU216 cells, 12-point dose-response): 0.4223
- area under the viability curve (AUC), normalized ([5]; 12-point dose-response): −0.416
- area under the viability curve (AUC), normalized ([6]; 12-point dose-response): −0.6969
- area under the viability curve (AUC), normalized ([7]; 12-point dose-response): −0.3028
- area under the viability curve (AUC), normalized ([8]; MKN45 cells, 12-point dose-response): 0.1641
- area under the viability curve (AUC), normalized ([9]; 12-point dose-response): 0.6953
- area under the viability curve (AUC), normalized ([10]; 12-point dose-response): −0.6115
- area under the viability curve (AUC), normalized ([11]; SNU484 cells, 12-point dose-response): −0.6338
- area under the viability curve (AUC), normalized ([12]; 12-point dose-response): 0.3149
- area under the viability curve (AUC), normalized ([13]; SNU668 cells, 12-point dose-response): 1.358
- area under the viability curve (AUC), normalized ([14]; 12-point dose-response): −0.1078
- area under the viability curve (AUC), normalized ([15]; 12-point dose-response): −0.07383
- area under the viability curve (AUC), normalized ([16]; SK4 cells, 12-point dose-response): 0.3944
- area under the viability curve (AUC), normalized ([17]; 12-point dose-response): 2.791
- area under the viability curve (AUC), normalized ([18]; Hs746T cells, 12-point dose-response): −0.9394
- area under the viability curve (AUC), normalized ([19]; 12-point dose-response): 0.8821
- area under the viability curve (AUC), normalized ([20]; 12-point dose-response): 1.081
- area under the viability curve (AUC), normalized ([21]; 12-point dose-response): −0.3911
- area under the viability curve (AUC), normalized ([22]; 12-point dose-response): 0.06564
- area under the viability curve (AUC), normalized ([23]; 12-point dose-response): 2.346
- area under the viability curve (AUC), normalized ([24]; 12-point dose-response): 0
- area under the viability curve (AUC), normalized ([25]; 12-point dose-response): −0.8453
- area under the viability curve (AUC), normalized ([26]; SNU1750 cells, 12-point dose-response): −1.326
- area under the viability curve (AUC), normalized ([27]; 12-point dose-response): −0.0987
- area under the viability curve (AUC), normalized ([28]; 12-point dose-response): 1.082
- area under the viability curve (AUC), normalized ([29]; AGS cells, 12-point dose-response): −0.1894
